Data reported in ChEMBL document CHEMBL4819130 (Bioorg Med Chem, 2021).
The source made the active and inactive calls. The rule behind the calls is not given here.

How the values were obtained:
Cocaine esterase = molecular target: T1, Cocaine esterase (Homo sapiens, UniProt O00748); test: Inhibition of CES2 in human liver microsomes assessed as reduction in substrate hydrolysis using fluorescein diacetate as substrate preincubated for 3 mins followed by substrate addition and measured after 20 mins by fluorescence analysis
T1 sequence (O00748 whole entry): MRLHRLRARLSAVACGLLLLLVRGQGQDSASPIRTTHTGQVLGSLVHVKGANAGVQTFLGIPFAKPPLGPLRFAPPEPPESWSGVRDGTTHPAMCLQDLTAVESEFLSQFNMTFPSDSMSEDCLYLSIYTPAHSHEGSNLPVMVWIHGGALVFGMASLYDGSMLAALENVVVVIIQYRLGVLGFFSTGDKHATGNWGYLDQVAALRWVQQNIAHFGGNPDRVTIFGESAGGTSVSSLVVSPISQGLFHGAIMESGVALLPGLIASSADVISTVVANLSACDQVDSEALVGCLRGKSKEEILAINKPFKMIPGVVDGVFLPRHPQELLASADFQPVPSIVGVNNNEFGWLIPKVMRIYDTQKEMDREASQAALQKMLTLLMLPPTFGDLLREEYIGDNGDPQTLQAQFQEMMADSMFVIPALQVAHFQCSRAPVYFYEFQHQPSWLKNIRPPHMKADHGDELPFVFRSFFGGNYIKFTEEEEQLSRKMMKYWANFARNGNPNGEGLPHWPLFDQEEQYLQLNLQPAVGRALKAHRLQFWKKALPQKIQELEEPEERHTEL

3T3-L1 [1] = test: Inhibition of adipogenesis in mouse 3T3-L1 cells assessed as reduction in lipid droplet formation at 40 uM incubated with compound for 72 hrs in presence of adipogenesis-inducing agent followed by culturing in normal medium in presence of compound for 48 hrs by Oil red O staining based analysis; format: functional, cell-based; conditions: time 120.0 hrs
3T3-L1 [2] = test: Cytotoxicity against mouse 3T3-L1 cells assessed as reduction in cell viability at <40 uM after 48 hrs by CCK8 assay; format: cell-based; conditions: 3t3-l1, 48 h
Caco-2 = test: Cytotoxicity against human Caco-2 cells assessed as reduction in cell viability at <40 uM after 48 hrs by CCK8 assay; format: cell-based; conditions: caco-2, 48 h
HepG2 = test: Cytotoxicity against human HepG2 cells assessed as reduction in cell viability at <40 uM after 48 hrs by CCK8 assay; format: cell-based; conditions: hepg2, 48 h
3T3-L1 [3] = test: Inhibition of adipogenesis in mouse 3T3-L1 cells assessed as reduction in lipid droplet formation at 10 uM incubated with compound for 72 hrs in presence of adipogenesis-inducing agent followed by culturing in normal medium in presence of compound for 48 hrs by Oil red O staining based analysis; format: functional, cell-based; conditions: time 120.0 hrs

IC50 (Cocaine esterase) [µM]	Compound	also measured
5.16	Cc1ccc(CC2C(=O)N(c3ccccc3)N=C2c2ccccc2)cc1 (stereo unspecified)	–
9.04	CCC1C(=O)N(c2ccccc2)N=C1c1ccccc1 (stereo unspecified)	–
–	Cc1ccc(CC2C(=O)N(C3CCCCC3)N=C2c2ccc(C)cc2)cc1 (stereo unspecified)	inhibition (3T3-L1 [1]): Active; Activity (3T3-L1 [2]): Non-Toxic; Activity (Caco-2): Non-Toxic; Activity (HepG2): Non-Toxic; inhibition (3T3-L1 [3]): Active
3.82	Cc1ccc(C2=NN(c3ccccc3)C(=O)C2Cc2ccccc2)cc1 (stereo unspecified)	–
9.12	O=C1C(Cc2ccccc2)C(c2ccccc2)=NN1C1CCCCC1 (stereo unspecified)	–
6.19	O=C1C(Cc2ccccc2)C(c2ccc(Br)cc2)=NN1c1ccccc1 (stereo unspecified)	–
6.68	COc1ccc(CC2C(=O)N(c3ccccc3)N=C2c2ccccc2)cc1 (stereo unspecified)	–
10.9	O=C1C(Cc2ccccc2[N+](=O)[O-])C(c2ccccc2)=NN1c1ccccc1 (stereo unspecified)	–
7.11	Cc1cccc(CC2C(=O)N(c3ccccc3)N=C2c2ccccc2)c1 (stereo unspecified)	–
1.57	CCCCCCCC/C=C\CCCCCCCC(=O)OCC(O)COP(=O)(O)O (stereo unspecified)	–
8.24	O=C1C(Cc2ccc(Br)cc2)C(c2ccccc2)=NN1c1ccccc1 (stereo unspecified)	–
7.76	C=CCC1C(=O)N(c2ccccc2)N=C1c1ccccc1 (stereo unspecified)	–
